The values that follow come from US8277810B2, “Antagonist anti-CD40 antibodies” (Novartis Vaccines & Diagnostics, Inc., priority 2003, dated 2012).

One assay has as its system Namalwa tumors. The assay is described as follows: Staged human NHL Namalwa xenograft model. In kind it is in vivo, T cell-deficient nude mice. The note with it: CHIR-12.12 1 mg/kg ip once a week for 4 weeks; IL-2 0.5 mg/kg sc daily for 8 days; N=10 mice/group. The text has this:
Therefore, the component of these mAbs' anti-tumor activity based on blocking the tumor proliferation/survival signal is not expected to contribute to anti-tumore efficacy in these models.
To ensure consistent tumor growth, T cell-deficient nude mice were whole-body irradiated at 3 Gy to further suppress the immune system one day before tumor inoculation. Tumor cells were inoculated subcutaneously in the right flank at 5×10^6 cells per mouse. Treatment was initiated when tumor volume reached about 100-200 mm^3 (about 7 days after tumor inoculation). […] Tumor volumes were recorded twice a week. Data were analyzed using ANOVA.

For assay [1], the system named is IM-9 tumor cells. Nature of the assay: IM-9 multiple myeloma xenograft, unstaged conditional survival model. Also on record: species or system SCID mice. The following applies: mouse, in vivo. As to the method: SCID mice were inoculated subcutaneously with IM-9 tumor cells (a human multiple myeloma cell line expressing both CD40 and CD20) in 50% […]™ at 5×10^6 cells per mouse. In unstaged models, treatment was initiated one day after tumor implantation. In staged models, treatment was initiated when tumor volume reached 150-200 mm^3. Tumor-bearing mice were injected with anti-CD40 mAb intraperitoneally once a week at the indicated doses. Data were analyzed using the log-rank test.

Assay [2] concerns IM-9 tumor cells. Nature of the assay: IM-9 multiple myeloma xenograft, staged subcutaneous model. In kind it is in vivo, SCID mice. As to the method: SCID mice were inoculated subcutaneously with IM-9 tumor cells (a human multiple myeloma cell line expressing both CD40 and CD20) in 50% […]™ at 5×10^6 cells per mouse. In unstaged models, treatment was initiated one day after tumor implantation. In staged models, treatment was initiated when tumor volume reached 150-200 mm^3. […] Data were analyzed using the log-rank test.

For the compound “IL-2: IL-2 used in the xenograft example; b966 says des-alanyl-1, serine-125 human IL-2 is used in the examples”, the “growth of Namalwa tumors, single agent” value with Namalwa tumors is on record as “inhibited the growth of Namalwa tumors”.

For the compound `CC(C)C[C@H](NC(=O)[C@H](Cc1ccccc1)NC(=O)c1cnccn1)B(O)O` [bortezomib], in the assay on IM-9 tumor cells [1], the “outcome of treated group” value was “euthanized between day 18 and day 26”. In addition, the tumor growth inhibition result is “did not inhibit tumor growth” with IM-9 tumor cells [2] (0.5 mg/kg twice a week) and 30% with IM-9 tumor cells [2] (MTD 1 mg/kg twice a week).
